The source of these data is ChEMBL document CHEMBL5620436, “Structure-Guided Design and Optimization of Covalent VHL-Targeted Sulfonyl Fluoride PROTACs” (J Med Chem, 2024).

Data set [1] addresses T1, von Hippel-Lindau disease tumor suppressor/Androgen receptor (Homo sapiens) (UniProt P10275+P40337). Nature of the data set: PROTAC activity at VHL/HiBit tagged AR in human LNCaP cells assessed as degradation of AR preincubated with epoxomicin for 3 hrs followed by compound addition and measured after 18 hrs by Nano-Glo HiBiT assay. It is filed as cell-based. In general terms: HiBiT is a short tag that completes a luciferase, so light tracks the accessible tagged protein.

Data set [2] deals with T1, von Hippel-Lindau disease tumor suppressor/Androgen receptor (Homo sapiens). Briefly: PROTAC activity at VHL/HiBit tagged AR in human LNCaP cells assessed as degradation of AR preincubated with MLN4924 for 3 hrs followed by compound addition and measured after 18 hrs by Nano-Glo HiBiT assay. The class given is cell-based.
The test system of data set [3] is LNCaP. Briefly: Cytotoxicity against human LNCaP cells harbouring HiBit tagged AR assessed as reduction in cell viability measured after 16 hrs by cell titer glo assay. The class given is functional, cell-based.
The target in data set [4] is T2, von Hippel-Lindau disease tumor suppressor/Bromodomain-containing protein 4 (Homo sapiens, UniProt O60885+P40337). Nature of the data set: PROTAC activity at HiBit tagged BRD4/VHL E3 ligase in human HEK293 cells assessed as degradation of BRD4 preincubated with MLN4924 for 3 hrs followed by compound addition and measured after 18 hrs by Nano-Glo HiBiT assay. It is filed as cell-based.

Data set [5] has as its target T2, von Hippel-Lindau disease tumor suppressor/Bromodomain-containing protein 4. Nature of the data set: PROTAC activity at HiBit tagged BRD4/VHL E3 ligase in human HEK293 cells assessed as degradation of BRD4 incubated for 18 hrs by Nano-Glo HiBiT assay. It is filed as cell-based.
In data set [6] the test system is HEK293. Briefly: Cytotoxicity against human HEK293 cells harbouring HiBit tagged BRD4 assessed as reduction in cell viability measured after 18 hrs by cell titer glo assay. The class given is toxicity, cell-based. The note with it: hek293, 18 h.
For data set [7], the target named is T2, von Hippel-Lindau disease tumor suppressor/Bromodomain-containing protein 4. Nature of the data set: PROTAC activity at HiBit tagged BRD4/VHL E3 ligase in human HEK293 cells assessed as degradation of BRD4 preincubated with epoxomicin for 3 hrs followed by compound addition and measured after 18 hrs by Nano-Glo HiBiT assay. The class given is cell-based.

Data set [8] has as its target T3, von Hippel-Lindau disease tumor suppressor (Homo sapiens, UniProt P40337). Briefly: Inhibition of N-terminal 6his tagged human VHL (1 to 213 residues) expressed in HEK293 cells using NanoBRET NanoGlo substrate by NanoBRET assay. It is filed as cell-based.
Data set [9] concerns the target T3, von Hippel-Lindau disease tumor suppressor. Nature of the data set: Inhibition of VHL in HEK293T cells assessed as target engagement incubated for 2 hrs by Streptavidin-pull down blotting assay. The note with it: dose 1-100 µM. It is filed as cell-based.

SMILES strings stand for the structures. The source made the active and inactive calls. No cut-off for these calls is given here.

On to `Cc1cc([C@H](C(=O)N2C[C@H](S(=O)(=O)F)C[C@H]2C(=O)N[C@@H](CC(=O)N2CCC(C#Cc3ccc(C(=O)N[C@H]4C(C)(C)[C@H](Oc5ccc(C#N)c(Cl)c5)C4(C)C)cc3)CC2)c2ccc(-c3scnc3C)cc2)C(C)C)on1`, for which the result in data set [1], in data set [2] and in data set [3] was inactive.
As a reminder, the EC50 is the midpoint of the concentration-response curve. On to `COCC(COC)n1c(-c2cc(C)c(=O)n(C)c2)nc2cc(C3CCN(C(=O)COCCOCCOCCNC(=O)C[C@H](NC(=O)[C@@H]4C[C@@H](S(=O)(=O)F)CN4C(=O)[C@@H](c4cc(C)no4)C(C)C)c4ccc(-c5scnc5C)cc4)CC3)ccc21`, for which the outcome in [4] and in data set [7] was inactive. Moreover, in [5], the 50% effective concentration (EC50) stood at 17.2 µM. Further, the Activity result in data set [6] was “Non-Toxic”.
The IC50 is the midpoint of a concentration-inhibition curve. Lower therefore signals higher potency. As for `CC(=O)N[C@H](C(=O)N1C[C@H](S(=O)(=O)F)C[C@H]1C(=O)NCc1ccc(-c2scnc2C)cc1)C(C)(C)C`, the IC50 in data set [8] was > 100 µM.
Consider `Cc1cc([C@H](C(=O)N2C[C@H](S(=O)(=O)F)C[C@H]2C(=O)N[C@@H](CC(=O)N2CCC(C#Cc3ccc(C(=O)N[C@H]4C(C)(C)[C@H](Oc5ccc(C#N)c(C(F)(F)F)c5)C4(C)C)cc3)CC2)c2ccc(-c3scnc3C)cc2)C(C)C)on1`, for which the outcome in [1], in [2] and in data set [3] was inactive.
In the case of `Cc1cc([C@H](C(=O)N2C[C@H](S(=O)(=O)F)C[C@H]2C(=O)N[C@@H](CC(=O)NCCOCCOCCOCCNC(=O)CCCC[C@H]2SC[C@@H]3NC(=O)N[C@@H]32)c2ccc(-c3scnc3C)cc2)C(C)C)on1`, the inhibition entry in data set [9] was “Dose-Dependent Effect”.
